The assay has as its target T1, α2C-adrenoceptor (Homo sapiens, UniProt P18825).
T1 sequence (P18825 1-462): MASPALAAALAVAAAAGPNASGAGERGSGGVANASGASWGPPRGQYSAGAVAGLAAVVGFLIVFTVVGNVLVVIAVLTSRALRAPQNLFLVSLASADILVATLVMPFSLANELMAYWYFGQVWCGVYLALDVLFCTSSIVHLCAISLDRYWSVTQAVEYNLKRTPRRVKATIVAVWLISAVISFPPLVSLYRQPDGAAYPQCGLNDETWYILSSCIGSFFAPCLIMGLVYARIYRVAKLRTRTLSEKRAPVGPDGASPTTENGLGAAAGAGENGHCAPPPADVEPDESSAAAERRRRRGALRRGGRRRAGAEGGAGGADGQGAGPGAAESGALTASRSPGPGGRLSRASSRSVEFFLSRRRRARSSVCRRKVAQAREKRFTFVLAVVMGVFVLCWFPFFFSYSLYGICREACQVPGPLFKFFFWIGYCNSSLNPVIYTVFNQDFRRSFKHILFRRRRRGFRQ
Put plainly: α2c-Adrenoceptor binding test (3H-MK-912 binding, HepG2 cell membrane fraction). The note with it: 0.5 h, test compound 10^−7 mol/l, read-out: Inhibition ratio (%) against α2c-adrenoceptor binding. On the set-up: the membrane fraction of the cultured cells was used; endogenous in cells; host or cells: HepG2 (human hepatoma) cell membrane fraction. As to the method:
Adrenoceptor Binding Activity (α2c-Adrenoceptor Binding Test)
This test was carried out according to the method of Schaak et al. [Journal of Pharmacological Experimental Therapeutics, Vol. 281, p. 983 (1997)] as slightly modified.
Human hepatocyto HepG2 cells were cultured in DMEM medium (GIBCO BRL) containing 10% fetal bovine serum (FBS), 100 units/ml penicillin and 100 μg/ml streptomycin, and the membrane fraction of the cultured cells was used. The cultured cells were washed with phosphate-buffered saline (PBS), then scraped with a scraper and recovered by centrifugation at 800 rpm for 5 minutes. To the cells was added a buffer [50 mmol/l tris(hydroxymethyl)aminomethane: Tris, 5 mmol/l ethylenediamine tetraacetic acid (EDTA), pH 7.5], and the cells were suspended using Polytron Homogenizer (Kinematica), followed by centrifugation at 39,000×g for 10 minutes. The precipitate thus obtained was re-suspended in the same amount of the buffer, and the cell suspension was obtained by centrifugation and removing the supernatant in a similar manner.
To 100 μl of the cell suspension were added 80 μl of tritium-labeled MK-912 (methyl-^3H: 2.89 TBq/mmol; New England Nuclear) (final concentration: 1.0 nmol/l) and 20 μl of a test compound. The mixture was allowed to stand at 25° C. for 30 minutes and then rapidly filtered by suction through a glass fiber filter treated with 0.3% polyethyleneimine (GF/C; Whatman). The filter was immediately washed 3 times with 200 μl of an ice-cooled buffer and transferred to a vial. A liquid scintillator (ULTIMA GOLD; Packard) was added thereto and the radioactivity was measured with a liquid scintillation counter (Packard).
The inhibition ratio of the test compound against the α2C-adrenoceptor binding (^3H-MK-912 binding) was calculated using the following equation.
Inhibition ratio (%)={1−(amount of the binding in the presence of the test compound−amount of the nonspecific binding)/(amount of the total binding−amount of the nonspecific binding)}×100
(Note) Amount of the total binding means the amount of radioactivity of ^3H-MK-912 bound in the absence of the test compound. Amount of the nonspecific binding means the amount of radioactivity of ^3H-MK-912 bound in the presence of 10 μmol/l Yohimbine (Sigma). Amount of the binding in the presence of the test compound means the amount of radioactivity of ^3H-MK-912 bound in the presence of varied concentrations of the test compound.

Here are results for 19 compounds from US20040110826A1, “Receptor Antagonists” (priority 2001, published 2004).

The structures appear in SMILES notation.

For the compound `Nc1ncc(CNCC2COc3ccccc3O2)c2nc(-c3ccco3)nn12` (stereo not shown) [Compound 213, 5-Amino-8-(1,4-benzodioxan-2-ylmethylaminomethyl)-2-(2-furyl)[1,2,4]triazolo[1,5-c]pyrimidine], the inhibition at 0.1 µM is 96%. The result for `CSc1ncc(CN2CCc3ccccc3C2)c2nc(-c3ccco3)nn12` [Compound 452, 2-(2-Furyl)-5-methylthio-8-(1,2,3,4-tetrahydroisoquinolin-2-ylmethyl)[1,2,4]triazolo[1,5-c]pyrimidine] reads 58%. As for `COc1cc2c(cc1OC)CN(Cc1cnc(NCCCO)n3nc(-c4ccco4)nc13)CC2` [Compound 182, 8-(6,7-Dimethoxy-1,2,3,4-tetrahydroisoquinolin-2-ylmethyl)-2-(2-furyl)-5-(3-hydroxypropylamino)[1,2,4]triazolo[1,5-c]pyrimidine], the figure is 72%.

For `COCCNc1ncc(CN2CCc3ccccc3C2)c2nc(-c3ccco3)nn12` [Compound 127, 2-(2-Furyl)-5-(2-methoxyethylamino)-8-(1,2,3,4-tetrahydroisoquinolin-2-ylmethyl)[1,2,4]triazolo[1,5-c]pyrimidine], the inhibition at 0.1 µM was 68%. As for `Nc1ncc(CN2CCC(c3ccccc3)CC2)c2nc(-c3ccco3)nn12` [Compound 203, 5-Amino-2-(2-furyl)-8-(4-phenylpiperidinomethyl)[1,2,4]triazolo[1,5-c]pyrimidine], the figure is 83%.

Take `COc1ccc2c(c1)CCN(Cc1cnc(N)n3nc(-c4ccco4)nc13)C2` [Compound 89, 5-Amino-2-(2-furyl)-8-(6-methoxy-1,2,3,4-tetrahydroisoquinolin-2-ylmethyl)[1,2,4]triazolo[1,5-c]pyrimidine]: the inhibition at 0.1 µM is 86%.

For `Nc1ncc(CN2CCN(c3ccccc3)CC2)c2nc(-c3ccco3)nn12` [Compound 2, 5-Amino-2-(2-furyl)-8-(4-phenylpiperazin-1-ylmethyl)[1,2,4]triazolo[1,5-c]pyrimidine], the inhibition at 0.1 µM came out at 80%. As for `Cc1ccc2c(c1)CN(Cc1cnc(N)n3nc(-c4ccco4)nc13)CC2` [Compound 195, 5-Amino-2-(2-furyl)-8-(7-methyl-1,2,3,4-tetrahydroisoquinolin-2-ylmethyl)[1,2,4]triazolo[1,5-c]pyrimidine], the figure is 87%; as for `Nc1ncc(CN2CCN(c3ccccc3)CC2)c2nc(-c3cccnc3)nn12` [Compound 144, 5-Amino-8-(4-phenylpiperazin-1-ylmethyl)-2-(3-pyridyl)[1,2,4]triazolo[1,5-c]pyrimidine], 75%.

Regarding `Nc1ncc(CN2CCN(c3ccccc3Cl)CC2)c2nc(-c3ccco3)nn12` [Compound 49, 5-Amino-8-[4-(2-chlorophenyl)piperazin-1-ylmethyl]-2-(2-furyl)[1,2,4]triazolo[1,5-c]pyrimidine], the inhibition at 0.1 µM was 91%. The result for `N#Cc1ccccc1N1CCN(Cc2cnc(N)n3nc(-c4ccco4)nc23)CC1` [Compound 59, 5-Amino-8-[4-(2-cyanophenyl)piperazin-1-ylmethyl]-2-(2-furyl)[1,2,4]triazolo[1,5-c]pyrimidine] reads 65%; that for `O=c1[nH]cc(CN2CCN(c3ccccc3)CC2)c2nc(-c3ccco3)nn12` [Compound 483, 2-(2-Furyl)-8-(4-phenylpiperazin-1-ylmethyl)-6H-[1,2,4]triazolo[1,5-c]pyrimidin-5-one], 60%; that for `Nc1ncc(CN2CCN(c3ncccn3)CC2)c2nc(-c3ccco3)nn12` [Compound 23, 5-Amino-2-(2-furyl)-8-[4-(2-pyrimidinyl)piperazin-1-ylmethyl][1,2,4]triazolo[1,5-c]pyrimidine], 70%.

On to `Nc1ncc(CN2CCc3ccccc3C2)c2nc(-c3ccco3)nn12` [Compound 19, 5-Amino-2-(2-furyl)-8-(1,2,3,4-tetrahydroisoquinolin-2-ylmethyl)[1,2,4]triazolo[1,5-c]pyrimidine], for which the inhibition at 0.1 µM is 96%. Regarding `Nc1ncc(CN2CCN(c3ccccc3)CC2)c2nc(C3CCCCC3)nn12` [Compound 166, 5-Amino-2-cyclohexyl-8-(4-phenylpiperazin-1-ylmethyl)[1,2,4]triazolo[1,5-c]pyrimidine], the inhibition at 0.1 µM is 84%.

Regarding `C1=C(CN2CCc3ccccc3C2)c2nc(-c3ccco3)nn2C2=NCCN12` [Compound 491, 2-(2-Furyl)-4-(1,2,3,4-tetrahydroisoquinolin-2-ylmethyl)-6,7-dihydro-1,3,5a,8,8b-pentaaza-as-indacene], the inhibition at 0.1 µM stood at 74%. As for `Cc1ccccc1N1CCN(Cc2cnc(N)n3nc(-c4ccco4)nc23)CC1` [Compound 55, 5-Amino-2-(2-furyl)-8-[4-(2-methylphenyl)piperazin-1-ylmethyl][1,2,4]triazolo[1,5-c]pyrimidine], the figure is 92%; as for `Nc1ncc(CN2CCN(c3ccccc3F)CC2)c2nc(-c3ccco3)nn12` [Compound 45, 5-Amino-8-[4-(2-fluorophenyl)piperazin-1-ylmethyl]-2-(2-furyl)[1,2,4]triazolo[1,5-c]pyrimidine], 88%. Consider `CN(Cc1ccccc1)c1ncc(CN2CCN(c3ccccc3F)CC2)c2nc(-c3ccco3)nn12` [Compound 370, 8-[4-(2-Fluorophenyl)piperazin-1-ylmethyl]-2-(2-furyl)-5-(N-methylbenzylamino)[1,2,4]triazolo[1,5-c]pyrimidine], for which the inhibition at 0.1 µM came to 91%.
